Source: patent US20230059487A1, “PHOTOSENSITIVE MATERIAL, TRANSFER FILM, MANUFACTURING METHOD OF CIRCUIT WIRING, MANUFACTURING METHOD OF TOUCH PANEL, AND PATTERN FORMING METHOD” (FUJIFILM Corporation, priority 2020, published 2023)
Like-named read-outs stand apart in the source and are kept apart here. Values belong to the compound of their own block, whether it stands above or below them.

Columns and labels:
[1] = Measurement of molar absorption coefficients ε365, ε313 and ε365/ε313 in acetonitrile; assay type: physicochemical
Source text: (Measurement and Evaluation of ε365 and ε365/ε313)
The ε365 and ε313 of the compound β are molar absorption coefficients measured by dissolving the compound β in acetonitrile. In a case where the compound β was insoluble in acetonitrile, a solvent for dissolving the compound β may be appropriately changed.

[2] = Measurement of pKa of compound β in ground state (acid titration); assay type: physicochemical
Source text: (Measurement of pKa of Compound β in Ground State)

[3] = molar absorption coefficient at 365 nm in acetonitrile

SMILES: Clc1ccccn1 [Example 2-Chloropyridine, 2-Chloropyridine]
- ε365 of Compound β [1, 3]: <10 (cm mol/L)^−1

- pKa of Compound β in ground state [2]: 4.69
- pKa of Compound β in ground state ([2]; compound β alone): 4.69
- pKa of Compound β in ground state ([2]; compound β alone, ground state): 4.69
- pKa of Compound β in ground state ([2]; compound β in ground state): 4.69
- pKa of Compound β in ground state ([2]; compound β, ground state): 4.69
- pKa of Compound β in ground state ([2]; ground state): 4.69
- ε365 of Compound β [1, 3]: <10 (cm mol/L)^−1
SMILES: c1ccc2cnccc2c1 [Example B1, isoquinoline]

- pKa of Compound β in ground state [2]: 4.67
- pKa of Compound β in ground state ([2]; compound β alone): 4.67
- pKa of Compound β in ground state ([2]; compound β alone, ground state): 4.67
- pKa of Compound β in ground state ([2]; compound β in ground state): 4.67
- pKa of Compound β in ground state ([2]; compound β, ground state): 4.67
- pKa of Compound β in ground state ([2]; ground state): 4.67
- ε365 of Compound β [1, 3]: 4900 (cm mol/L)^−1
SMILES: c1ccc2nc3ccccc3cc2c1 [Example B3, acridine]

- ε365 of Compound β [1, 3]: <10 (cm mol/L)^−1
SMILES: CCCCc1ncc(C)c2ccccc12 [Example 1-n-Butyl-4-methylisoquinoline, 1-n-Butyl-4-methylisoquinoline]

- ε365 of Compound β [1, 3]: <10 (cm mol/L)^−1
SMILES: Cc1nccc2ccccc12 [Example B6, 1-Me-isoquinoline]

SMILES: Nc1ccncc1 [Example 4-Aminopyridine, 4-Aminopyridine]
- ε365 of Compound β [1, 3]: <100 (cm mol/L)^−1

- ε365 of Compound β [1, 3]: <10 (cm mol/L)^−1
SMILES: CCCCc1nccc2ccccc12 [Example 1-n-Butylisoquinoline, 1-n-Butylisoquinoline]

- ε365 of Compound β [1, 3]: 6300 (cm mol/L)^−1
SMILES: Cc1c2ccccc2nc2ccccc12 [Example 9-Methylacridine, 9-Methylacridine]

- ε365 of Compound β [1]: >10000
- ε365 of Compound β ([1]; molar absorption coefficient at 365 nm): >10000
- ε365 of Compound β [1, 3]: >10000 (cm mol/L)^−1
SMILES: c1ccc(-c2c3ccccc3nc3ccccc23)cc1 [Example 9-Phenylacridine, 9-Phenylacridine]

- ε365 of Compound β [1, 3]: <10 (cm mol/L)^−1
SMILES: Cc1cc(C)c2c(C)cc(C)nc2c1 [2,4,5,7-Tetramethylquinoline]

- pKa of Compound β in ground state [2]: 4.15
- pKa of Compound β in ground state ([2]; compound β alone): 4.15
- pKa of Compound β in ground state ([2]; compound β alone, ground state): 4.15
- pKa of Compound β in ground state ([2]; compound β in ground state): 4.15
- pKa of Compound β in ground state ([2]; compound β, ground state): 4.15
- pKa of Compound β in ground state ([2]; ground state): 4.15
- ε365 of Compound β [1, 3]: <10 (cm mol/L)^−1
SMILES: c1ccc2ncccc2c1 [Example B2, quinoline]

- ε365 of Compound β ([1]; molar absorption coefficient at 365 nm in acetonitrile, listed as 2,4-Dimethylquinoline): <10 (cm mol/L)^−1
SMILES: Cc1cc(C)c2ccccc2n1 [Example B12, 2,4-dimethylquinoline]

- ε365 of Compound β [1, 3]: <10 (cm mol/L)^−1
SMILES: COc1cc(C)nc2ccccc12 [Example 2-Methyl-4-methoxyquinoline, 2-Methyl-4-methoxyquinoline]

- ε365 of Compound β [1, 3]: <10 (cm mol/L)^−1
SMILES: Cc1cc(C)c2ccccc2n1 [2,4-Dimethylquinolme]

SMILES: c1ccncc1 [Example B11, pyridine]
- ε365 of Compound β [1, 3]: <10 (cm mol/L)^−1
